Assay results from US20250382346A1, “NEURONAL PROMOTERS AND USES THEREOF” (priority 2023, published 2025).

What was measured:
[1] = Locomotion test in naïve macaques (no viral injection); assay type: in vivo; details: naive macaques, n=3, not significant
rM3Ds = target: T1, rM3Ds (Rattus norvegicus, UniProt P08483, A177S/A238G/A489L/DEL261-437/DEL441-478/E258S/I253V/I483M/INS256[…]/K178L/K182A/K255R/K484R/K486H/L173F/L482A/M480V/R171S/R176Q/R179M/S481M/T174R/T181R/T257A/Y148C); assay: In vivo electrophysiological recording in caudate/putamen of anesthetized macaques, rM3Ds; parameters: 2A-EYFP (C); expressed in transfected cells; host or cells: neurons (striatal D1-MSNs) of mice or cynomolgus macaques, transduced in vivo by nigral AAV8R12-G88P7-rM3Ds-2A-EYFP
T1 sequence (P08483 with tags, fused parts or gaps Y148C/R171S/L173F/T174R/R176Q/A177S/K178L/R179M/T181R/K182A/A238G/I253V/K255R/INS256[…]/T257A/E258S/DEL261-437/DEL441-478/M480V/S481M/L482A/I483M/K484R/K486H/A489L): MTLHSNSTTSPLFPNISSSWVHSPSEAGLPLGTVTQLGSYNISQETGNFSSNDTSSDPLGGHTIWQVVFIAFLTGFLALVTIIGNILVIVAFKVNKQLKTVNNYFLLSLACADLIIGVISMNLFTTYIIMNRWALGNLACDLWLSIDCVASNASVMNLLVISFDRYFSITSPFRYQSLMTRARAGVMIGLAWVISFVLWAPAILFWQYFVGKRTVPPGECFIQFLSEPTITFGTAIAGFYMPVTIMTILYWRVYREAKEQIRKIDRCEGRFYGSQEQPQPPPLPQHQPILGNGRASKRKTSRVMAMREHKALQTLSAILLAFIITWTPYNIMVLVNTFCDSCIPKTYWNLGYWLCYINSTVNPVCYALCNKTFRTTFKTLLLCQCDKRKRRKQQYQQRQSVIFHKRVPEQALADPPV
Method: • Electrophysiological recording was performed through a recording chamber while the monkey was anesthetized. Neural responses were recorded by a 16-channel linear probe (Plexon Inc, Uprobe) driven by a mechanical microdrive (Alpha Omega, FlexMT). Signals were passed through a head stage (Plexon Inc, HST/16V-G20 LN) and then split and filtered between 300 Hz and 5 kHz to identify spiking activity with an amplifier system (Plexon Inc, OmniPlex). Detected spikes were then sorted by commercially available software (Plexon Inc, Offline Sorter) for further analysis. To quantify the effect of CNO/DCZ injection, neural activity was recorded for 60 minutes following CNO/DCZ injection. The response time-course for each channel was obtained by counting the spikes within every 10-minute window and then normalizing to the maximal.
To determine the effect of CNO/DCZ injection on the direction of signal change, we performed Pearson correlation between neural responses and time using the ‘corr’ function in Matlab, which generates the correlation coefficient ‘r’ and significant level ‘p’. A neuron was considered to have “Increased” activity when r>0 and p<0.05; and considered to have “Decreased” activity when r<0 and p<0.05. Otherwise, neurons were considered to be “Unchanged” in their neural activities. The responses of all increased neurons were then averaged after being normalized by the maximal response (Crowe et al., 2014; Dai and Wang, 2018; Hirokawa et al., 2019) following CNO/DCZ injection, and then plotted as a function of time to generate the normalized population response.
To enable in-vivo verification of the strategy via an opto-tagging approach, AAV virus encoding opsin ChR2 (AAV9-EF1α-DIO-ChR2-EYFP) was injected into the striatum with simultaneous nigral infusion of a retrograde AAV encoding Cre and rM3Ds (AAV8R12-G88P7-HA-rM3Ds-2A-Cre). A total volume of 27 μl (3 μl×9 sites) and 30 μl (3 μl×10 sites) were injected in the SNr and the striatum, respectively. A recording chamber was implanted above the striatum to allow optical stimulation and electrophysiological recording.
Optogenetic verification was conducted six weeks after virus injections. A 16-channel linear probe with an embedded optic fiber (Plexon Inc., Uprobe) was used to deliver light stimulation and record neural responses. A mechanical Microdrive (FlexMT, Alpha Omega, Nazareth, Israel) was used to mount and drive the probe. A blue laser (473 nm, Changchun New Industries Tech, MBL-III-473) was used to generate light stimulation, which was controlled by a DAQ board (National Instruments, PCIe-6321) through the MonkeyLogic toolbox (NIMH version).
Light pulses of 40 Hz that last for 500 ms were used to probe neurons' responses to optical stimulation. […] Responses from these optically identified cells were grouped to generate the normalized population response as a function of time.

[2] = monkey CM048, 38 cells, intramuscular CNO

For `C[N+]1([O-])CCN(C2=Nc3cc(Cl)ccc3Nc3ccccc32)CC1` [CNO, Clozapine-N-oxide], the “percentage of contraversive and ipsiversive rotation (FIG. 11C), mean±SEM” value ([1]; saline 0.767±0.4296) was 0.8384±0.4152, the “speed of contraversive rotations (FIG. 11G), mean±SEM” value ([1]; saline 39.07±5.889) was 39.63±7.092 and the “speed of ipsiversive rotations (FIG. 11H), mean±SEM” value ([1]; saline 41.49±3.96) was 42.79±4.705. For the same compound, the “total distance (FIG. 11F), mean±SEM” value ([1]; saline 53.12±15.3) was 59.48±18.65, the “time spending in the higher portion of the observing cages (FIG. 11D), mean±SEM” value ([1]; saline 55.73±2.64) was 60.43±4.542 and the “immobile time (FIG. 11E), mean±SEM” value ([1]; saline 149.9±21.61) was 149.8±22.65. For the same compound, the “cells in caudate/putamen activated (FIG. 12N)” value (rM3Ds; 38 total cells, CNO administrations, saline 20%) was 50%, the “cells in caudate/putamen unchanged (FIG. 12N)” value (rM3Ds; 38 total cells, CNO administrations, saline 26.7%) was 36.8% and the “cells in caudate/putamen inactivated (FIG. 12N)” value (rM3Ds; 38 total cells, CNO administrations, saline 53.3%) was 13.2%. The “neuronal activity of opto-tagged retrogradely labeled D1-MSNs” value (rM3Ds; AAV8R12-G88P7-HA-rM3Ds-2A-Cre plus AAV9-EF1α-DIO-ChR2-EYFP, intramuscular CNO, anesthetized macaques) was “effectively induced an increase of neuronal activity in retrogradely labeled D1-MSNs”, the “cells in caudate/putamen activated (FIG. 15G)” value (rM3Ds; MPP+ lesioned macaques, CNO 36 cells, DCZ 31 cells, saline 17.9%) was 52.8% and the “cells in caudate/putamen inactivated (FIG. 15G)” value (rM3Ds; MPP+ lesioned macaques, CNO 36 cells, DCZ 31 cells, saline 33.4%) was 13.9%. The “cells in caudate/putamen unchanged (FIG. 15G)” value (rM3Ds; MPP+ lesioned macaques, CNO 36 cells, DCZ 31 cells, saline 48.7%) was 33.3%, the “cells in caudate activated (FIG. 12F)” value (rM3Ds; [2]) was 65.8% and the “cells in caudate inactivated (FIG. 12F)” value (rM3Ds; [2]) was 7.9%. For the same compound, the “cells in caudate unchanged (FIG. 12F)” value (rM3Ds; [2]) was 26.3%.
